According to ChEMBL document CHEMBL6134854, “Development of Hydrazide-Based HDAC6 Selective Inhibitors for Treating NLRP3 Inflammasome-Related Diseases” (J Med Chem, 2025):

What was measured:
[1] = biological target: T1, Polyamine deacetylase HDAC10 (Homo sapiens, UniProt Q969S8); assay: Inhibition of recombinant HDAC10 (unknown origin) using Ac-Gly-Ala-Lys(AMC) as substrate preincubated for 1 hrs followed by substrate addition and measured after 2 hrs by fluorescence based microplate reader analysis
T1 sequence (Q969S8 whole entry): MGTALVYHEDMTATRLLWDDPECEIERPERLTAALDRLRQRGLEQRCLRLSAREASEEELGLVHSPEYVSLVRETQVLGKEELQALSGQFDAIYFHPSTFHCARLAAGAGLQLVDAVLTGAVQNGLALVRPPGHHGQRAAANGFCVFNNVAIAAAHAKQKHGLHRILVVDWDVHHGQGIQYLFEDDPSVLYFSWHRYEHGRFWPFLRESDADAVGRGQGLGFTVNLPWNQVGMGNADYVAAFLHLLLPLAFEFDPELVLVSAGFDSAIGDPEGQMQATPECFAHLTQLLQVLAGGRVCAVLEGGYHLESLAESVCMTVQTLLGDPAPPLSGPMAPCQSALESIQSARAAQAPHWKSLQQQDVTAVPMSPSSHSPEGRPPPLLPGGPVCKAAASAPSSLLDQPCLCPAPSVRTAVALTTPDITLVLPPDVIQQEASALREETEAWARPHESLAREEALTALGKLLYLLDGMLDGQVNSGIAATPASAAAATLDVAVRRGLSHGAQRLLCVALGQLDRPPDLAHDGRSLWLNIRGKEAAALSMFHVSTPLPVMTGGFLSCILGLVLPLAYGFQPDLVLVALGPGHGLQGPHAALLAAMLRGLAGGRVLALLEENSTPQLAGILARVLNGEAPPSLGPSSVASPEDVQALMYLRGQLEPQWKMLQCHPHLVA

L02 [2] = assay: Cytotoxicity against HL7702 cells assessed as effect on cell viability at 10 uM incubated for 48 hrs by resazurin reagent based assay; format: toxicity; conditions: human, l02, 48 h
J774.A1 = assay: cells; conditions: Mus musculus, J774.A1, 48 h
in vivo [3] = conditions: male, ICR, mouse, iv, 5 mg/kg
in vivo [4] = conditions: male, ICR, mouse, iv, 5 mg/kg; remark: listed apart in the source
Histone deacetylase 1 = Histone deacetylase 1 (Homo sapiens, UniProt Q13547); assay: Inhibition of recombinant HDAC1 (unknown origin) using Boc-Lys (acetyl)-AMC as substrate preincubated for 1 hrs followed by substrate addition and measured after 2 hrs by fluorescence based microplate reader analysis
Histone deacetylase 2 = Histone deacetylase 2 (Homo sapiens, UniProt Q92769); assay: Inhibition of recombinant HDAC2 (unknown origin) using Boc-Lys (acetyl)-AMC as substrate preincubated for 1 hrs followed by substrate addition and measured after 2 hrs by fluorescence based microplate reader analysis
Histone deacetylase 3 = Histone deacetylase 3 (Homo sapiens, UniProt O15379); assay: Inhibition of recombinant HDAC3 (unknown origin) using Boc-Lys (acetyl)-AMC as substrate preincubated for 1 hrs followed by substrate addition and measured after 2 hrs by fluorescence based microplate reader analysis
Histone deacetylase 4 = Histone deacetylase 4 (Homo sapiens, UniProt P56524); assay: Inhibition of recombinant HDAC4 (unknown origin) using Boc-Lys (trifluoroacetyl)AMC as substrate preincubated for 1 hrs followed by substrate addition and measured after 2 hrs by fluorescence based microplate reader analysis
Histone deacetylase 5 = Histone deacetylase 5 (Homo sapiens, UniProt Q9UQL6); assay: Inhibition of recombinant HDAC5 (unknown origin) using Boc-Lys (trifluoroacetyl)AMC as substrate preincubated for 1 hrs followed by substrate addition and measured after 2 hrs by fluorescence based microplate reader analysis
Histone deacetylase 7 = biological target: T2, Histone deacetylase 7 (Homo sapiens, UniProt Q8WUI4); assay: Inhibition of recombinant HDAC7 (unknown origin) using Boc-Lys (trifluoroacetyl)AMC as substrate preincubated for 1 hrs followed by substrate addition and measured after 2 hrs by fluorescence based microplate reader analysis
T2 sequence (Q8WUI4 whole entry): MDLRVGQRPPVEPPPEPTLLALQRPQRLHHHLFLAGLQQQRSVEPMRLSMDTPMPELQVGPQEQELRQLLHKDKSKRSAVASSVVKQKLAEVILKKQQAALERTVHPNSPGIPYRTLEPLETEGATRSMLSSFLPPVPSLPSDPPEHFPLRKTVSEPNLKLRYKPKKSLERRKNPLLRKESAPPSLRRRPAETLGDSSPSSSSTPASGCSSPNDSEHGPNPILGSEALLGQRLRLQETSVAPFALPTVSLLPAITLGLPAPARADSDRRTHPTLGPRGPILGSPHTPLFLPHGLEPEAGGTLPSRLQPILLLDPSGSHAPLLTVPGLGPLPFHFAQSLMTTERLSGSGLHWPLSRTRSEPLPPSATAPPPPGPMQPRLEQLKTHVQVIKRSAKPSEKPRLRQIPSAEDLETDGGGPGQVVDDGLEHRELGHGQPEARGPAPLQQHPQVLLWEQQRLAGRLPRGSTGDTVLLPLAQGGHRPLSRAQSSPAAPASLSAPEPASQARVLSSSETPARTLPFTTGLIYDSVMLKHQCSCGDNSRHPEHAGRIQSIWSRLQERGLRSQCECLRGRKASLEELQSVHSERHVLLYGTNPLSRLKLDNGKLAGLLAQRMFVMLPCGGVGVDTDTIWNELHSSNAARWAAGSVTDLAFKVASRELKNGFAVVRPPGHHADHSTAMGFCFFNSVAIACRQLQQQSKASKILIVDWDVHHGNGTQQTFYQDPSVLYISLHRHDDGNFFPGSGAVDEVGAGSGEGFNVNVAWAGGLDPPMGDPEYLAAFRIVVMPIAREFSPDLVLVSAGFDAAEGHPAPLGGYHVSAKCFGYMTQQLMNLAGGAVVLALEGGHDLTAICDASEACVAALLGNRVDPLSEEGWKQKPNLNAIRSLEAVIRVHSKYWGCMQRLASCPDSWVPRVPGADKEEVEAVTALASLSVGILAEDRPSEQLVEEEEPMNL

Histone deacetylase 8 = biological target: T3, Histone deacetylase 8 (Homo sapiens, UniProt Q9BY41); assay: Inhibition of recombinant HDAC8 (unknown origin) using Boc-Lys (trifluoroacetyl)AMC as substrate preincubated for 1 hrs followed by substrate addition and measured after 2 hrs by fluorescence based microplate reader analysis
T3 sequence (Q9BY41 whole entry): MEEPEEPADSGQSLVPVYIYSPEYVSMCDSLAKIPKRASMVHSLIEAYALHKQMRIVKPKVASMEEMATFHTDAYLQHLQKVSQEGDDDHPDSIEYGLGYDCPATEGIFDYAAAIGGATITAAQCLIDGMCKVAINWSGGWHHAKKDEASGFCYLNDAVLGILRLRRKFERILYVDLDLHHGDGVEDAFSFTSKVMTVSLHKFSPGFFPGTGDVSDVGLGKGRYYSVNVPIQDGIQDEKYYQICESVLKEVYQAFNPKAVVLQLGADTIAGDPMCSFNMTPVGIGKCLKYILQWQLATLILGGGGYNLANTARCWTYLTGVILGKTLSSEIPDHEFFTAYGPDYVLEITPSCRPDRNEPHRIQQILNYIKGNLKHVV

Histone deacetylase 9 = Histone deacetylase 9 (Homo sapiens, UniProt Q9UKV0); assay: Inhibition of recombinant HDAC9 (unknown origin) using Boc-Lys (trifluoroacetyl)AMC as substrate preincubated for 1 hrs followed by substrate addition and measured after 2 hrs by fluorescence based microplate reader analysis
Histone deacetylase 11 = biological target: T4, Histone deacetylase 11 (Homo sapiens, UniProt Q96DB2); assay: Inhibition of recombinant HDAC11 (unknown origin) using ETDKacyl-Kmyr as substrate preincubated for 1 hrs followed by substrate addition and measured after 2 hrs by fluorescence based microplate reader analysis
T4 sequence (Q96DB2 whole entry): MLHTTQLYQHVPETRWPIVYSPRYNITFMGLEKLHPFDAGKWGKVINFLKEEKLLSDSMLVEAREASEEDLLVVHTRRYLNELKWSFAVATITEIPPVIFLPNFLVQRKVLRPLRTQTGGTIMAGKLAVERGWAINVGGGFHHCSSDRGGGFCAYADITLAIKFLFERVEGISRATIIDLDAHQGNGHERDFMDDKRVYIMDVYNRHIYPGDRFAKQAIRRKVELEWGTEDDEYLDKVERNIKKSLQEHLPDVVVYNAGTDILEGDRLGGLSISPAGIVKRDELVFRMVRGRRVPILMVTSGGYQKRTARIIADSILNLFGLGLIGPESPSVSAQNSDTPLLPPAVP

L02 [5] = assay: Cytotoxicity against HL7702 cells assessed as effect on cell viability incubated for 48 hrs by resazurin reagent based assay; format: toxicity; conditions: human, l02, 48 h

Chain of Histone deacetylase 2 (Q92769 whole entry): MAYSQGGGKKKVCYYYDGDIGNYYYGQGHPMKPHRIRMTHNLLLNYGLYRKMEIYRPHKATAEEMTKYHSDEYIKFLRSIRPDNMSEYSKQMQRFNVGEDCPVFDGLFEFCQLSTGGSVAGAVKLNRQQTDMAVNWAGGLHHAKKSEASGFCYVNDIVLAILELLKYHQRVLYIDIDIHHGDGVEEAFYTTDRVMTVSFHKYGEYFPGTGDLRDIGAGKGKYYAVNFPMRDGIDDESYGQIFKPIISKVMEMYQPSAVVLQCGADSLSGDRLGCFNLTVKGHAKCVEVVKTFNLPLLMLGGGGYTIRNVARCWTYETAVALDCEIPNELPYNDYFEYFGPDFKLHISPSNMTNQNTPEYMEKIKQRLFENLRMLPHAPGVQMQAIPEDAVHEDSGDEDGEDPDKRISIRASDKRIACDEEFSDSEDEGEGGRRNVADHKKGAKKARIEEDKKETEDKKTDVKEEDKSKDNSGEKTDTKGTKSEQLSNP
Chain of Histone deacetylase 1 (Q13547 whole entry): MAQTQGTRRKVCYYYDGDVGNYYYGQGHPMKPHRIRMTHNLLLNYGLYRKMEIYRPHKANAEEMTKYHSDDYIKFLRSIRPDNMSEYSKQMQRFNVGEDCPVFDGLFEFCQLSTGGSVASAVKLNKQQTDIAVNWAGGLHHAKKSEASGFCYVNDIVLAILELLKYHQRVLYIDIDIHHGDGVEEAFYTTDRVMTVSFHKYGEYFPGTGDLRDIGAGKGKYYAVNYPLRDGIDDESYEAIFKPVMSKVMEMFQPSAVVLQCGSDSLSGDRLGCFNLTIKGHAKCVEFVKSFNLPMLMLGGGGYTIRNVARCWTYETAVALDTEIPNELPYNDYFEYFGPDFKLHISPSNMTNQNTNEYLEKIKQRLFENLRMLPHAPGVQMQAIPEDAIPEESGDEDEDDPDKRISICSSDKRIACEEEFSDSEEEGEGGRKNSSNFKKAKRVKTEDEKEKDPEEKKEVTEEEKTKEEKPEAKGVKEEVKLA
Chain of Histone deacetylase 3 (O15379 whole entry): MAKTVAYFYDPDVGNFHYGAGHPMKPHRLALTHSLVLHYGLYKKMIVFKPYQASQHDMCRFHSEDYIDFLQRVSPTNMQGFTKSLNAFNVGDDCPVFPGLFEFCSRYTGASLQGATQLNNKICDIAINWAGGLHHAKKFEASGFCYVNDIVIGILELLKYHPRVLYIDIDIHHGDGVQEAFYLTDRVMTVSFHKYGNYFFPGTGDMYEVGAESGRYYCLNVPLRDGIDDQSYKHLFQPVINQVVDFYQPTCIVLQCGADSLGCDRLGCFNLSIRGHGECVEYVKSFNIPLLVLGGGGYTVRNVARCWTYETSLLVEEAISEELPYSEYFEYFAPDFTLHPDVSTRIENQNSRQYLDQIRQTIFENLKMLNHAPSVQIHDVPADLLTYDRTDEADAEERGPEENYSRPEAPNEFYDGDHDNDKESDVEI
Chain of Histone deacetylase 4 (P56524 whole entry): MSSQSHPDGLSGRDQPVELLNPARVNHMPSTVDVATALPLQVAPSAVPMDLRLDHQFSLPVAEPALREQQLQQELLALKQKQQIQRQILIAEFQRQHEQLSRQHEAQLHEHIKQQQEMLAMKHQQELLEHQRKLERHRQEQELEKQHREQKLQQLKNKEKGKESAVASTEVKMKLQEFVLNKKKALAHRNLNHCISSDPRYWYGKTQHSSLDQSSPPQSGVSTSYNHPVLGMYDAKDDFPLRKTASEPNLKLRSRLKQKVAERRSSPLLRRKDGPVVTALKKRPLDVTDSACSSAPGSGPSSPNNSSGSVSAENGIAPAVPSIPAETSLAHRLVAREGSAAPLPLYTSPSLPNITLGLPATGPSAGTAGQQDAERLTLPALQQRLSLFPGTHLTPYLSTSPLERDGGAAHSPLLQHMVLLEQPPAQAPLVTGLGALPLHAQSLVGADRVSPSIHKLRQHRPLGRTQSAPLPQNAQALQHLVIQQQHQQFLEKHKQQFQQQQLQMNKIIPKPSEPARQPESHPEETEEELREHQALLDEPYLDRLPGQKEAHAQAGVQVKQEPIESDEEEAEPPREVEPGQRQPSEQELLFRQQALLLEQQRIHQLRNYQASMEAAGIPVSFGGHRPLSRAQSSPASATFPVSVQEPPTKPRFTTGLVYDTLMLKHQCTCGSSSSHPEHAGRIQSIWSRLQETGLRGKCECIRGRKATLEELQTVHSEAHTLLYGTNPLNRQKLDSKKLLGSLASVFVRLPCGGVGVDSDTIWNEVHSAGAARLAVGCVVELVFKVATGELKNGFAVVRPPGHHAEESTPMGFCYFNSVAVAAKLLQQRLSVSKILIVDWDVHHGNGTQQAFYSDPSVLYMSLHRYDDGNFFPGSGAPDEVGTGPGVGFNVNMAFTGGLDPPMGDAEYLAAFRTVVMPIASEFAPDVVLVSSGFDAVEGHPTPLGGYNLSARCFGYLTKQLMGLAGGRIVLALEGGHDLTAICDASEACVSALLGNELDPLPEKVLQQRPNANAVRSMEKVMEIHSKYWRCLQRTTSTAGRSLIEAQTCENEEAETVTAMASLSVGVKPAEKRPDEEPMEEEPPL
Chain of Histone deacetylase 5 (Q9UQL6 whole entry): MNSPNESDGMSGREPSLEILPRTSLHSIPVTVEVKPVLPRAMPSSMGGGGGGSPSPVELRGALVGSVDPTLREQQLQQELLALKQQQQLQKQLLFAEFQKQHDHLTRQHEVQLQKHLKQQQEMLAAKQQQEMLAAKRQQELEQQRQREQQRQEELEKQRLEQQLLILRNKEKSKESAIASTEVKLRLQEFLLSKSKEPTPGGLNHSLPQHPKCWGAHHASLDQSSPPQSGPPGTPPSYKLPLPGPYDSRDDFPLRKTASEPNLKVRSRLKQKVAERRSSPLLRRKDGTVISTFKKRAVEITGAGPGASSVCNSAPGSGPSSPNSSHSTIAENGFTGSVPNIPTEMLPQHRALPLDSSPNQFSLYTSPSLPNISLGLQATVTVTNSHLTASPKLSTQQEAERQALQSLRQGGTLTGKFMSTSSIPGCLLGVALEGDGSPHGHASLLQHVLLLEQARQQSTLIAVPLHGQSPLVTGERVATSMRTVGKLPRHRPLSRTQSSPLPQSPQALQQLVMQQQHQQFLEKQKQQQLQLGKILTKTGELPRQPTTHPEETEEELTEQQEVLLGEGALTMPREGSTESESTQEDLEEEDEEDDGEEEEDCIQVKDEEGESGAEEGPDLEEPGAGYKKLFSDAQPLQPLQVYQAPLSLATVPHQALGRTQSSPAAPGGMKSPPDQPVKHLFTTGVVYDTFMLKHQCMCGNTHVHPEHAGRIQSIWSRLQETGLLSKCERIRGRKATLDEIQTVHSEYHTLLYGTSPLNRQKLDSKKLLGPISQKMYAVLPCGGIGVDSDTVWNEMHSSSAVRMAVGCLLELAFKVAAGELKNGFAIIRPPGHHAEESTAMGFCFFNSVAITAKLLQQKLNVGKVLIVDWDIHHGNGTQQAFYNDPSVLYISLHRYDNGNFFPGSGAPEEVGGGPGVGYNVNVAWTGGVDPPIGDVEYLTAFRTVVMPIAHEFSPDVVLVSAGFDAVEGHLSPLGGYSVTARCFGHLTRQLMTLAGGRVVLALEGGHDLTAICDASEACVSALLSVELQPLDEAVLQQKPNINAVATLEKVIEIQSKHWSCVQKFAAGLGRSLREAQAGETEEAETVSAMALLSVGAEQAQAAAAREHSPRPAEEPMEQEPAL
Chain of Histone deacetylase 9 (Q9UKV0 whole entry): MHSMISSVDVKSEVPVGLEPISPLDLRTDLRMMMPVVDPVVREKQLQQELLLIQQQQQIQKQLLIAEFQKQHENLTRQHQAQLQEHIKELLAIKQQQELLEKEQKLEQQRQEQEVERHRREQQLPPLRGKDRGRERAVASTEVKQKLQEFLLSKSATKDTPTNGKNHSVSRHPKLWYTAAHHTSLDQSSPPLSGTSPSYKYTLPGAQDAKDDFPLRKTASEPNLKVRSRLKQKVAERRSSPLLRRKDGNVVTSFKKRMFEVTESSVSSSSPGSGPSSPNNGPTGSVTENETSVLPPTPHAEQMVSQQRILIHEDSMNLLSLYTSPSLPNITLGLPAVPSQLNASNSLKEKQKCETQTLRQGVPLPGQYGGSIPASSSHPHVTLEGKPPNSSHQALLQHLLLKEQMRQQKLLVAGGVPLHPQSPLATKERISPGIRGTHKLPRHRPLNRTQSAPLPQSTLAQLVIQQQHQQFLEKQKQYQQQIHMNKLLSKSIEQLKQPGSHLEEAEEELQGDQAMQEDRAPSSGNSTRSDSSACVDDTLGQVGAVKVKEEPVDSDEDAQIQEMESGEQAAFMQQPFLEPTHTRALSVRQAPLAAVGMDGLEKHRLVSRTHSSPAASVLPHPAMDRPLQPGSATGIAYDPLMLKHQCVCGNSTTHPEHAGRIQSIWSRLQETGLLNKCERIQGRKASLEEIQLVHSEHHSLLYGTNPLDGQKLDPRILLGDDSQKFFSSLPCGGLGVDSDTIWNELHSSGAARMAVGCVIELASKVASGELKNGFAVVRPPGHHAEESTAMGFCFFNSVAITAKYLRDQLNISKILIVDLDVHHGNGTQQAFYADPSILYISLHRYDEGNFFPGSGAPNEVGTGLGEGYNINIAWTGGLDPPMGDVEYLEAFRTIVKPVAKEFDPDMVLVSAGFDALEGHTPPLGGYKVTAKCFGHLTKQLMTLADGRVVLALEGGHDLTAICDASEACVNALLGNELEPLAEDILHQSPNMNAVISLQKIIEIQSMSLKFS

Row | IC50 (Histone deacetylase 1) [µM] | IC50 (Histone deacetylase 2) [µM] | IC50 (Histone deacetylase 3) [µM] | SMILES | also measured
1 | – | – | – | CCNNC(=O)c1ccc(CN2c3ccccc3C=Cc3ccncc32)cc1 | IC50 [1]: > 10 µM; Activity (L02 [2]): Toxic; IC50 (J774.A1): 25.6 µM; clearance at 24 h (in vivo [3]): 30.6 mL/min/kg; Vd at 24 h (in vivo [4]): 3.51 L/kg
2 | > 10 | > 10 | > 10 | CCNNC(=O)c1cc(F)c(CN2c3ccccc3C=Cc3ccncc32)c(F)c1 | –
3 | > 10 | > 10 | > 10 | CCNNC(=O)c1cc(F)c(CN2c3ccccc3Sc3cccnc32)cc1F | –
4 | > 10 | > 10 | 7.04 | CCNNC(=O)c1cc(F)c(CN2c3ccccc3C=Cc3ccncc32)cc1F | IC50 (Histone deacetylase 4): > 10 µM; IC50 (Histone deacetylase 5): > 10 µM; IC50 (Histone deacetylase 7): > 10 µM; IC50 (Histone deacetylase 8): > 10 µM; IC50 (Histone deacetylase 9): > 10 µM; IC50 [1]: > 10 µM; IC50 (Histone deacetylase 11): > 10 µM
5 | 8.74 | > 10 | 3.75 | CCNNC(=O)c1ccc(CN2c3ccccc3C=Cc3ccncc32)c(F)c1 | IC50 (Histone deacetylase 4): > 10 µM; IC50 (Histone deacetylase 5): > 10 µM; IC50 (Histone deacetylase 7): > 10 µM; IC50 (Histone deacetylase 8): > 10 µM; IC50 (Histone deacetylase 9): 2.27 µM; IC50 [1]: > 10 µM; IC50 (Histone deacetylase 11): > 10 µM
6 | > 10 | > 10 | 6.37 | O=C(NNCCF)c1ccc(CN2c3ccccc3C=Cc3ccncc32)cc1 | –
7 | > 10 | > 10 | > 10 | CCNNC(=O)c1cc(F)c(Cn2c3ccccc3c3ccccc32)cc1F | –
8 | > 10 | > 10 | > 10 | CCNNC(=O)c1cc(F)c(CN2c3ccccc3C=Cc3ccccc32)cc1F | –
9 | > 10 | > 10 | > 10 | CCNNC(=O)c1cc(F)c(Cn2c3ccccc3c3cccnc32)cc1F | –
10 | > 10 | > 10 | > 10 | CCNNC(=O)c1cc(F)c(CNc2cccc3cccnc23)cc1F | –
11 | > 10 | > 10 | 1.79 | CCNNC(=O)c1ccc(CN2c3ccccc3C=Cc3ccncc32)cc1F | –
12 | – | – | – | O=C(CCCCCCNC(=O)c1cnc(N(c2ccccc2)c2ccccc2)nc1)NO [RICOLINOSTAT] | Activity (L02 [5]): Toxic
